Experimental data as given in ChEMBL document CHEMBL1201862, “PubChem BioAssay data set” (2004).
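All cell lines were grown in 96-well plates and treated with compound for 48 hours. GI50: concentration for 50% inhibition of growth.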 Calls of active or inactive are those of the source. Rule as the data show it: active = GI50 up to about 1.1 µM and inactive = higher.

What was measured:
Assay in all cases: NCI anticancer screen, dose series, 48 h
OVCAR-8 = tested on: OVCAR-8
NCI-H23 = tested on: NCI-H23
Malme-3M = tested on: Malme-3M
MOLT-4 = tested on: MOLT-4
SR = tested on: SR
RXF 393 = tested on: RXF 393
SF-295 = tested on: SF-295
HCT-116 = tested on: HCT-116
HCC 2998 = tested on: HCC 2998
SK-MEL-5 = tested on: SK-MEL-5
HT-29 = tested on: HT-29
CAKI-1 = tested on: CAKI-1
HOP-92 = tested on: HOP-92
OVCAR-5 = tested on: OVCAR-5
SW-620 = tested on: SW-620
RPMI-8226 = tested on: RPMI-8226
SNB-75 = tested on: SNB-75
A498 = tested on: A498

Row | Structure (SMILES) | GI50 (OVCAR-8) | GI50 (NCI-H23) | GI50 (Malme-3M) | GI50 (MOLT-4) | GI50 (SR) | GI50 (RXF 393) | GI50 (SF-295) | GI50 (HCT-116) | GI50 (HCC 2998) | GI50 (SK-MEL-5) | GI50 (HT-29) | GI50 (CAKI-1) | GI50 (HOP-92) | GI50 (OVCAR-5) | GI50 (SW-620) | GI50 (RPMI-8226) | GI50 (SNB-75) | GI50 (A498)
1 | CC(C)(C)C1=CC(CCC(=O)Nc2ccccc2[N+](=O)[O-])=NC(S)N1 (stereo not given) | > 100 µM (inactive) | > 100 µM (inactive) | > 100 µM (inactive) | > 100 µM (inactive) | > 100 µM (inactive) | > 100 µM (inactive) | > 100 µM (inactive) | > 100 µM (inactive) | > 100 µM (inactive) | > 100 µM (inactive) | > 100 µM (inactive) | > 100 µM (inactive) | > 100 µM (inactive) | > 100 µM (inactive) | > 100 µM (inactive) | – | – | –
2 | COc1ccc(/C=C2\CCc3ccccc3C2=O)cc1OC | 32.1 µM (inactive) | 19.6 µM (inactive) | 38.3 µM (inactive) | 21.4 µM (inactive) | – | – | 32.9 µM (inactive) | 17.9 µM (inactive) | 45.5 µM (inactive) | 15.9 µM (inactive) | 27.8 µM (inactive) | 31.6 µM (inactive) | – | 67.3 µM (inactive) | 28.4 µM (inactive) | 13.9 µM (inactive) | 21.4 µM (inactive) | 46.6 µM (inactive)
3 | O=C1NC(=O)C2C1C1C=C3c4ccccc4N(c4ccccc4)C32[C@H]2C(=O)NC(=O)[C@@H]12 (stereo not given in full) | > 100 µM (inactive) | – | > 100 µM (inactive) | > 100 µM (inactive) | – | – | > 100 µM (inactive) | > 100 µM (inactive) | > 100 µM (inactive) | > 100 µM (inactive) | > 100 µM (inactive) | > 100 µM (inactive) | > 100 µM (inactive) | > 100 µM (inactive) | > 100 µM (inactive) | > 100 µM (inactive) | > 100 µM (inactive) | > 100 µM (inactive)
4 | CCc1c(OC(C)=O)c2c(NC3OC(COC(C)=O)C(OC(C)=O)C(OC(C)=O)C3OC(C)=O)nc(SC)nc2oc1=O (stereo not given) | > 100 µM (inactive) | > 100 µM (inactive) | > 100 µM (inactive) | > 100 µM (inactive) | – | > 100 µM (inactive) | > 100 µM (inactive) | > 100 µM (inactive) | > 100 µM (inactive) | > 100 µM (inactive) | > 100 µM (inactive) | > 100 µM (inactive) | > 100 µM (inactive) | > 100 µM (inactive) | > 100 µM (inactive) | > 100 µM (inactive) | > 100 µM (inactive) | > 100 µM (inactive)
5 | CC(C)(C)c1ccc2c(c1)S(=O)(=O)Nc1ccc(Cl)cc1NS(=O)(=O)c1cc(C(C)(C)C)ccc1OCCOCCOCCO2 | 35 µM (inactive) | 32.4 µM (inactive) | 27.4 µM (inactive) | > 100 µM (inactive) | – | 19.8 µM (inactive) | 21.6 µM (inactive) | 35.9 µM (inactive) | > 100 µM (inactive) | 28.1 µM (inactive) | 99.3 µM (inactive) | 98.2 µM (inactive) | 18.5 µM (inactive) | > 100 µM (inactive) | 98.9 µM (inactive) | – | 24 µM (inactive) | > 100 µM (inactive)
6 | CN(C)CCn1cnc2ncccc2c1=O | > 100 µM (inactive) | > 100 µM (inactive) | > 100 µM (inactive) | > 100 µM (inactive) | > 100 µM (inactive) | > 100 µM (inactive) | > 100 µM (inactive) | > 100 µM (inactive) | > 100 µM (inactive) | > 100 µM (inactive) | > 100 µM (inactive) | > 100 µM (inactive) | > 100 µM (inactive) | > 100 µM (inactive) | > 100 µM (inactive) | – | > 100 µM (inactive) | –
7 | Brc1ccc(-c2cc3c(cc2C2SCCS2)OCO3)cc1 | 50.1 µM (inactive) | 39.2 µM (inactive) | 45.1 µM (inactive) | 13.4 µM (inactive) | 18.4 µM (inactive) | 12.9 µM (inactive) | 28.2 µM (inactive) | 30.1 µM (inactive) | 29 µM (inactive) | 23.3 µM (inactive) | 33.3 µM (inactive) | – | – | 16.6 µM (inactive) | 25.6 µM (inactive) | – | 1.25 µM (inactive) | 19 µM (inactive)
8 | CNC(=O)C1CCc2nnc(-c3ccccc3)n21 (stereo not given) | – | – | > 100 µM (inactive) | > 100 µM (inactive) | > 100 µM (inactive) | > 100 µM (inactive) | – | > 100 µM (inactive) | > 100 µM (inactive) | > 100 µM (inactive) | – | > 100 µM (inactive) | – | – | > 100 µM (inactive) | > 100 µM (inactive) | > 100 µM (inactive) | > 100 µM (inactive)
9 | CC(=O)O[C@H]1C(=O)[C@@]2(C)C(C(OC(=O)c3ccccc3)[C@]3(O)CC(OC(=O)C(O)C(NC(=O)c4ccccc4)c4ccc(C)cc4)C(C)=C1C3(C)C)[C@]1(OC(C)=O)CO[C@@H]1C[C@@H]2O (stereo not given in full) | 0.00979 µM (active) | 0.0251 µM (active) | 0.0538 µM (active) | 0.0163 µM (active) | – | 0.0074 µM (active) | 0.0787 µM (active) | 0.00938 µM (active) | – | – | 0.0094 µM (active) | 0.104 µM (active) | 0.565 µM (active) | 0.0618 µM (active) | 0.00555 µM (active) | 0.0117 µM (active) | 0.0531 µM (active) | 12 µM (inactive)
10 | Nc1nc(=O)n([C@@H]2CC[C@H](CO)O2)cc1F | > 100 µM (inactive) | > 100 µM (inactive) | > 100 µM (inactive) | > 100 µM (inactive) | – | > 100 µM (inactive) | > 100 µM (inactive) | – | 42.8 µM (inactive) | > 100 µM (inactive) | > 100 µM (inactive) | > 100 µM (inactive) | > 100 µM (inactive) | > 100 µM (inactive) | > 100 µM (inactive) | > 100 µM (inactive) | > 100 µM (inactive) | –
11 | O=C(O)c1cc(Cl)cc(NC(=O)C(Cl)Cl)c1Cl | > 100 µM (inactive) | > 100 µM (inactive) | > 100 µM (inactive) | > 100 µM (inactive) | – | > 100 µM (inactive) | > 100 µM (inactive) | > 100 µM (inactive) | > 100 µM (inactive) | > 100 µM (inactive) | > 100 µM (inactive) | > 100 µM (inactive) | – | – | > 100 µM (inactive) | > 100 µM (inactive) | > 100 µM (inactive) | > 100 µM (inactive)
12 | CC(C)=CC(=O)Cc1nc2ccc([N+](=O)[O-])cc2[nH]c1=O | > 100 µM (inactive) | > 100 µM (inactive) | > 100 µM (inactive) | 25.2 µM (inactive) | – | > 100 µM (inactive) | > 100 µM (inactive) | > 100 µM (inactive) | – | 22.6 µM (inactive) | > 100 µM (inactive) | > 100 µM (inactive) | > 100 µM (inactive) | > 100 µM (inactive) | > 100 µM (inactive) | 17.3 µM (inactive) | 18.5 µM (inactive) | > 100 µM (inactive)
13 | Nc1ncn(C2C=C(CO)C(O)C2O)c(=O)n1 (stereo not given) | 45.5 µM (inactive) | – | > 100 µM (inactive) | 59.4 µM (inactive) | 26.7 µM (inactive) | > 100 µM (inactive) | – | 40 µM (inactive) | 89.7 µM (inactive) | > 100 µM (inactive) | – | 40.7 µM (inactive) | – | – | 57.5 µM (inactive) | 37 µM (inactive) | > 100 µM (inactive) | > 100 µM (inactive)
